{"source": "patent US3954769A", "about": "“Dibenzo[b,f]thiepins” (Hoffman-La Roche Inc., priority 1973, dated 1976)", "key": {"[1]": {"system": "homovanillinic acid (turnover of dopamine in the basal ganglions)", "test": "Determination of homovanillinic acid (HVA), turnover of dopamine in brain", "format": "in vivo, rats", "conditions": "for Increase in HVA, %: rats, two hours prior to being killed, titer in untreated rats set at 100%; for activity in HVA test (in words): compared with chlorpromazine", "method": "II. Determination of Homovanillinic Acid\nTwo hours prior to being killed, rats are injected with the test substance.\nThereafter, the homovanillinic acid is extracted from the supernatant portion of a homogenous mixture of the brains into butyl acetate and later into aqueous solution and is oxidized with potassium ferric cyanide to a fluorescent dimer. […] The homovanillinic acid titer in untreated rats is arbitrarily set at 100%."}, "[2]": {"system": "rats", "test": "Determination of cataleptic effect (undesired side effect)", "format": "in vivo", "conditions": "in words", "method": "(§1) I. Determination of cataleptic effect (undesired side effect)\n(§2) A cataleptic effect (\"wax-like rigidity\", that is, abnormally long retention of an enforced body position) is considered to be a disturbing side effect with central depressants and neuroleptically active compounds and indicates motor disturbances. […] The following compounds were tested:\n(§3) The test animals are considered to be cataleptic when the homolateral extremities remain in the crossed position for at least 10 seconds. The number of cataleptic animals is recorded every 30 minutes over a 6-hour period. The ED50 is the dose at which 50% of the animals are cataleptic."}, "[3]": {"system": "mice", "test": "Determination of toxicity in mice (24-hour-values)", "format": "in vivo", "conditions": "in words", "source_text": "(§4) III. Determination of toxicity"}, "[4]": {"test": "Determination of toxicity in mice (24-hour-values)", "format": "in vivo", "conditions": "mouse, in vivo, po, read-out: ED50 (toxicity)", "source_text": "as §4"}, "[5]": {"test": "Determination of cataleptic effect (undesired side effect)", "format": "in vivo, rats", "conditions": "rat, in vivo, ip; rats, intraperitoneally; recorded every 30 minutes over a 6-hour period; read-out: ED50 (dose at which 50% of the animals are cataleptic)", "method": "as §1, §2, §3"}}, "note": "Entries after “also recorded” stand apart in the source; their conditions may differ.", "data": [{"smiles": "CN(C)CCCN1c2ccccc2Sc2ccc(Cl)cc21", "note": "[Chlorpromazine, reference compound]", "values": [{"measurement": "Increase in HVA, %", "setting": "[1]; 20 mg/kg. p.o.", "result": 320, "unit": "%"}, {"measurement": "cataleptic effect (in words)", "setting": "[2]", "result": "does demonstrate cataleptic effects"}]}, {"smiles": "CSc1ccc2c(c1)C(N1CCN(C)CC1)Cc1cc(C)ccc1S2.O=C(O)/C=C\\C(=O)O", "note": "(centres unmarked) [Product B, 1-[10,11-dihydro-2-methyl-8-(methylthio)-dibenzo[b,f]thiepin-10-yl]-4-methylpiperazine maleate]", "values": [{"measurement": "toxicity (in words)", "setting": "[3]", "result": "superior to chlorpromazine"}, {"measurement": "LD50 at 24 h", "setting": "[4]", "result": 450, "unit": "mg/kg"}, {"measurement": "activity in HVA test (in words)", "setting": "[1]", "result": "nearly as potent as that of chlorpromazine"}, {"measurement": "Increase in HVA, %", "setting": "[1]; 50 mg/kg. p.o.", "result": 320, "unit": "%"}, {"measurement": "cataleptic effect (in words)", "setting": "[2]; maleate", "result": "considerably lower cataleptic effect than chlorpromazine; also recorded: superior to chlorpromazine due to the lower cataleptic side effect"}, {"measurement": "TD50 at 6 h", "setting": "[5]", "result": 25, "unit": "mg/kg"}]}, {"smiles": "COc1ccc2c(c1)CC(N1CCN(C)CC1)c1cc(SC)ccc1S2.O=C(O)/C=C\\C(=O)O", "note": "(centres unmarked) [Product A, 1-[10,11-dihydro-2-methoxy-8-(methylthio)-dibenzo[b,f]thiepin-10-yl]-4-methylpiperazine maleate]", "values": [{"measurement": "toxicity (in words)", "setting": "[3]", "result": "superior to chlorpromazine"}, {"measurement": "LD50 at 24 h", "setting": "[4]", "result": 1880, "unit": "mg/kg"}, {"measurement": "activity in HVA test (in words)", "setting": "[1]", "result": "somewhat less active than chlorpromazine"}, {"measurement": "Increase in HVA, %", "setting": "[1]; 50 mg/kg. p.o.", "result": 185, "unit": "%"}, {"measurement": "cataleptic effect (in words)", "setting": "[2]; maleate", "result": "no cataleptic effect; also recorded: complete absence of cataleptic side effect"}, {"measurement": "TD50 at 6 h", "setting": "[5]", "result": "> 100", "unit": "mg/kg"}]}]}
